Test results as given in patent publication US20200239530A1, “COMPOUNDS AND METHODS OF MODULATING PROTEIN DEGRADATION” (Vividion Therapeutics, Inc., priority 2017, published 2020).
Read-outs that look alike come from different tables or passages of the source. Each block holds one molecule with its values, some of them ahead of it.

Columns and labels:
Experiment in all cases: Competitive cysteine profiling, probe competition (Table 2B)
Format in all cases: binding
Q96Q07 = biological target: T1, Q96Q07 (Homo sapiens, UniProt Q96Q07)
T1 construct: 200 μL of lysate containing 5 mg/ml proteome was treated with 2 μL of 100× compound stock; endogenous in cells
T1 sequence (Q96Q07 1-612): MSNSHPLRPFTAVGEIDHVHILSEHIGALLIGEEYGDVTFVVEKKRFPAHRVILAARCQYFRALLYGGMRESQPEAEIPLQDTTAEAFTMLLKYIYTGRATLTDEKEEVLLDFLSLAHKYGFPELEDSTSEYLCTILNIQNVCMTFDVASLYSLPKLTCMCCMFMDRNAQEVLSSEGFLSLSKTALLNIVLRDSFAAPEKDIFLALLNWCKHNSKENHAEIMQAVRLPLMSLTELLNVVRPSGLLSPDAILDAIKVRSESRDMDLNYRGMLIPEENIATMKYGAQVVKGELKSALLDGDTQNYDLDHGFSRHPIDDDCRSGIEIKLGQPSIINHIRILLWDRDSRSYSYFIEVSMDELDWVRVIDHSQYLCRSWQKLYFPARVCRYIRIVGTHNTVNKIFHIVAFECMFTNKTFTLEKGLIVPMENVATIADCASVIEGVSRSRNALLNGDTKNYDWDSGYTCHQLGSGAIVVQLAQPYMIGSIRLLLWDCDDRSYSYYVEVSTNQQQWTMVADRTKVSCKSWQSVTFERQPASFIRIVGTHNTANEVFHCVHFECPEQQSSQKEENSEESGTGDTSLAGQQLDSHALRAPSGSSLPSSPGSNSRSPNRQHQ
Source text: (§1) The following 96-well sample prep protocol was used for sample preparation.

Q9P2G1 = biological target: T2, Q9P2G1 (Homo sapiens, UniProt Q9P2G1)
T2 construct: Cells were resuspended in cold PBS on ice and sonicated with a probe sonicator to achieve lysis; endogenous in cells
T2 sequence (Q9P2G1 1-1089): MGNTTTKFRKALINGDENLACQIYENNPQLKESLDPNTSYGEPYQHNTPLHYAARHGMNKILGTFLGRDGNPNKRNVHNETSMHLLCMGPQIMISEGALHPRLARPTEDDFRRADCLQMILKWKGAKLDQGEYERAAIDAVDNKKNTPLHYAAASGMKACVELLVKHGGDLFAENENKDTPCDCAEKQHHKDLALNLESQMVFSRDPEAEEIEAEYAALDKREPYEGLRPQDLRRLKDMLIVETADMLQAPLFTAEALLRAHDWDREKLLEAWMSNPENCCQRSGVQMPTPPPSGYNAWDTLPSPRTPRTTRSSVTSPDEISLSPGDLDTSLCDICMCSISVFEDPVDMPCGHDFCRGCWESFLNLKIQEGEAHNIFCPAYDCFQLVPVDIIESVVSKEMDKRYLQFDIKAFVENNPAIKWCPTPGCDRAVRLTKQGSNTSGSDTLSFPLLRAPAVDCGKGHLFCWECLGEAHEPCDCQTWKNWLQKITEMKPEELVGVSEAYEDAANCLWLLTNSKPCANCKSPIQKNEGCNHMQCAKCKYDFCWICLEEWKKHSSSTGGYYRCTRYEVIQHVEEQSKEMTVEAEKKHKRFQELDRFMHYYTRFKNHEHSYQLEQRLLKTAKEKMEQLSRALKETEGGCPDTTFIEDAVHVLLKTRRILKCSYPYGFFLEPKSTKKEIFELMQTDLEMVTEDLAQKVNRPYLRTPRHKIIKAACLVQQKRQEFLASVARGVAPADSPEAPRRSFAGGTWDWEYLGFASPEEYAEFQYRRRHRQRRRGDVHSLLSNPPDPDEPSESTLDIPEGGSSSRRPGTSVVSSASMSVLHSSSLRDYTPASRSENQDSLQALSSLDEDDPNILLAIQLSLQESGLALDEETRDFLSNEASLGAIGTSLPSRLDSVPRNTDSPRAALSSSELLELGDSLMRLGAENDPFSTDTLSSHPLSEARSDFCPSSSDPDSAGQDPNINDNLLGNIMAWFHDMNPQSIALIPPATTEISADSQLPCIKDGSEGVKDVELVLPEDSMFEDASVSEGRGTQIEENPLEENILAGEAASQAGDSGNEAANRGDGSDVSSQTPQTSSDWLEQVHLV
Source text: as §1

Q9Y297 = biological target: T3, Q9Y297 (Homo sapiens, UniProt Q9Y297)
T3 construct: 200 μL of lysate containing 5 mg/ml proteome was treated with 2 μL of 100× compound stock; endogenous in cells
Source text: as §1

[1] = read-out: KB05_100 uM_percent_inhibition

T3 sequence (Q9Y297 whole entry): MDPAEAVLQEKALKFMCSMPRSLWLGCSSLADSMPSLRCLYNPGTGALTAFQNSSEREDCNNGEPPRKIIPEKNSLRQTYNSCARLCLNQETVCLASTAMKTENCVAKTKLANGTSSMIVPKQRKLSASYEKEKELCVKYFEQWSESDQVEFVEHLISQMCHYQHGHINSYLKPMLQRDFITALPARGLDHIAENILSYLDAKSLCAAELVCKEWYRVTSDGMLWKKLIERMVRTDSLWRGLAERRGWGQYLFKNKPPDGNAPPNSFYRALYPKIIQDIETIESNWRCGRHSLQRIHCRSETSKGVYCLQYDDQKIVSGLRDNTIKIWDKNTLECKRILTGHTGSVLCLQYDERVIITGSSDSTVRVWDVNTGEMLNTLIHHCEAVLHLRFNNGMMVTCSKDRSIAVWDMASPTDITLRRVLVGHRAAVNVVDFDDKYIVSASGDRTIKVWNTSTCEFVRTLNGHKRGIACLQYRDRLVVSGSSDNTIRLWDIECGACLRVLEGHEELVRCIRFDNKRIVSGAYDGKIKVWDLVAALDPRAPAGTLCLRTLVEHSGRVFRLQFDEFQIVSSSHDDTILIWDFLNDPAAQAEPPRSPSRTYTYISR

SMILES: COc1ccc2c(c1)CCCN2C(=O)CCl [KB02]
KB02_500 uM_percent_inhibition (Q96Q07; 500 uM): 45%
inhibition at 500 µM (Q96Q07; read-out: KB02_500 uM_percent_inhibition): 54%

inhibition at 500 µM (Q96Q07; read-out: KB05_500 uM_percent_inhibition): 65%
KB05_100 uM_percent_inhibition (Q9P2G1; 100 uM): 22%
inhibition at 100 µM (Q9P2G1; [1]): 41%
inhibition at 100 µM (Q9Y297; [1]): 43%
SMILES: C=CC(=O)N(c1ccccc1)c1ccc(Br)cc1 [KB05]

SMILES: O=C(CCl)Nc1cc(C(F)(F)F)cc(C(F)(F)F)c1 [KBO3]
KB03_100 uM_percent_inhibition (Q9P2G1; 100 uM): 29%
KB03_100 uM_percent_inhibition (Q9Y297; 100 uM): 54%
